Experiment: Test as antiagglomerant (agglomerate inhibition) in stirred steel autoclave
Settings: 5 000 ppm additive based on aqueous phase; water and white spirit 1:2; gas 1, 90 bar; 2° C. for 25 hours
Description: To investigate the inhibiting action of the compounds according to the invention, a stirred steel autoclave having temperature control, pressure and torque sensor having an internal volume of 450 ml was used. For investigations of kinetic inhibition, the autoclave was filled with distilled water and gas in a volume ratio of 20:80, and, for investigations of agglomerate inhibition, condensate was additionally added. Finally, natural gas was injected at different pressures.
Starting from a starting temperature of 17.5° C., the autoclave was cooled to 2° C. within 2 h, then stirred at 2° C. for 18 h and heated back up to 17.5° C. within 2 h. An initial pressure decrease corresponding to the thermal compression of the gas is observed. When the formation of gas hydrate nuclei occurs during the supercooling time, the pressure measured falls, and an increase in the torque measured and a slight increase in temperature can be observed. Without inhibitor, further growth and increasing agglomeration of the hydrate nuclei lead rapidly to a further increase in the torque. When the mixture is heated, the gas hydrates decompose, so that the starting state of the experimental series is attained.
On the other hand, the torque measured in the autoclave serves as a parameter for the agglomeration of the hydrate crystals. The pressure drop measured (Δp) allows a direct conclusion on the amount of hydrate crystals formed.
Gas 1: 79.3% methane, 10.8% ethane, 4.8% propane, 1.9% butane, 1.4% carbon dioxide, 1.8% nitrogen. Supercooling below the equilibrium temperture of hydrate formation at 50 bar: 12° C.
In order to test the effectiveness as agglomerate inhibitors, the test autoclave used above was initially charged with water and white spirit (20% of the volume in a ratio of 1:2) and, based on the aqueous phase, 5 000 ppm of the particular additive were added. At an autoclave pressure of 90 bar using gas 1 and a stirrer speed of 5 000 rpm, the temperature was cooled from initially 17.5° C. within 2 hours to 2° C., then the mixture was stirred at 2° C. for 25 hours and heated again. The pressure drop caused by hydrate formation and the resulting torque at the stirrer, which is a measure of the agglomeration of the gas hydrates, were measured.

| Compound | Pressure drop Δ p | Temperature rise Δ T | Torque Mmax |
| --- | --- | --- | --- |
| CCCCC(CC)COC(=O)COCC[N+](C)(CCOCC(=O)OCC(CC)CCCC)C1CCCCC1.COS(=O)(=O)[O-] (stereo not drawn) [Example 48] | 15.3 bar | 0.7 K | 0.4 Ncm |
| CCCCC(CC)COC(=O)COCC[N+](C)(CCOCC(=O)OCC(CC)CCCC)C1CCCC1.COS(=O)(=O)[O-] (stereo not drawn) [Example 46] | 15.1 bar | 0.3 K | 0.3 Ncm |
| CCCCC(CC)COC(=O)COCC[N+](C)(CCCC)CCOCC(=O)OCC(CC)CCCC.COS(=O)(=O)[O-] (stereo not drawn) [Example 50] | 10.1 bar | 0.1 K | 0.2 Ncm |
